Experimental findings from patent US20220081389A1, “AMIDE COMPOUNDS AND PREPARATION METHOD THEREFOR AND USE THEREOF” (CAC NANTONG CHEMICAL CO., LTD., priority 2019, published 2022) are described below.

What all share (type): in vivo
For data set [1], the system named is Spodoptera frugiperda. Kind of data set: Insecticidal activity test against Spodoptera frugiperda (leaf dip, maize seedlings). As to conditions: for mortality at 1 ppm / mortality at 0.1 ppm: Spodoptera frugiperda, foliar; for mortality at 1 ppm: read-out: insecticidal activity (mortality of Spodoptera frugiperda); for Mortality (%) against Spodoptera frugiperda, 1 d / Mortality (%) against Spodoptera frugiperda, 2 d / Mortality (%) against Spodoptera frugiperda, 3 d: 0.1 ppm, leaf dip, 3rd-instar larvae; for Mortality (%) against Spodoptera frugiperda, 1 d: 1st day after treatment; for Mortality (%) against Spodoptera frugiperda, 2 d: 2nd day after treatment; for Mortality (%) against Spodoptera frugiperda, 3 d: 3rd day after treatment. The method, then:
(§1) Various kinds of pests were tested with the compounds of this invention. Unless otherwise specified, the preparation method of samples and definition of the mortality rate of the insects in the embodiments and this invention are as follows: the preparation method of samples is to weigh 10 mg of the compound and dissolve it in 1 mL DMF to prepare 10,000 ppm mother liquid, which is diluted to necessary concentration by 0.05% Tween-80 water, respectively. The mortality rate is the mortality rate of pests under the test concentration, whose calculating formula is: mortality rate (%)=Number of dead pests/total pests*100
(§2) The leaf dip method was used to assay the insecticidal activity. Cut above ground part of fresh maize seedlings (about 10 cm). Dip the maize seedlings into the solution prepared with compound of this invention for 10 seconds and dry them in a cool environment. Then cut the dry maize seedlings into 3-5 cm leaf sections and put 3 leaf sections into each petri dish. Put ten of 3th-instar larvae of Spodoptera frugiperda into each dish, which was repeated by 3 times. Then the dishes were placed in an illumination incubator and incubated with 14 hL: 10 hD illumination at 25° C. Symptoms were investigated on the 1st, 2nd and 3rd day after treatment, and the mortality was calculated.

The subject of data set [2] is Mythimna separata. Nature of the data set: Insecticidal activity test against Mythimna separata (leaf dip, maize seedlings). As to conditions: foliar; for mortality at 0.04 ppm: 3rd day after treatment, read-out: insecticidal activity (mortality of Mythimna separate). As to the method: as §1
as §2, with “Mythimna separatas” for “Spodoptera frugiperda”

For data set [3], the system named is Chilo suppressalis. Kind of data set: Insecticidal activity test against Chilo suppressalis (rice stem dip). As to the method: as §1
The rice was cultivated in a plastic pot with a diameter of 9 cm and a height of 10 cm. When the rice grew to 25 cm, the aerial part of robust and consistent rice seedlings was selectively cut. Their leaves were removed and their stems of about 8 cm were kept for use. Pour the solution prepared with compound of this invention into the Petri dish (about 40 mL) and dip the rice stems into the solution for 10 seconds. Take rice stems out and dry them in a cool environment. Put a wet cotton ball at the bottom of finger-like glass tube and 5 rice stems in each tube. Put 10 of 3rd-instar larvae of Chilo suppressa into each tube, which was repeated by 3 times. Seal the tubes with black cotton cloth and tighten them with rubber band. The tubes were placed in a illumination incubator at 28° C. and incubated in the dark (incubated without light). The dead number of Chilo suppressalis was investigated 3 days after treatment. The mortality was calculated.

The subject of data set [4] is Spodoptera litura. Kind of data set: Insecticidal activity test against Spodoptera litura (leaf dip, cabbage leaf discs). As to conditions: foliar; for mortality at 0.4 ppm: 3rd day after treatment. As to the method:
as §1
The leaf dip method was used to assay the insecticidal activity. Healthy and pesticide-untreated cabbage leaves was selected to prepare 1 cm of leaf discs by diameter. Dip the leaf discs into the solution prepared with compound of this invention for 10 seconds and dry them in a cool […] environment. Then place them in 24-well plate with 3 discs per pore. Put 10 of Spodoptera litura into each pore, which was repeated by 3 times. The 24-well plate was placed in an illumination incubator and incubated with 14 hL: 10 hD illumination at 25° C. The dead number of Spodoptera litura was investigated on the 3rd day after treatment, and the mortality was calculated.

Data set [5] deals with Aphis craccivora. Kind of data set: Insecticidal activity test against Aphis craccivora (broad bean leaf dip). As to the method:
as §1
Cut a single leaf of broad bean with stem and insert it into a glass jar filled with water (capacity of 20 ml). Five adult Aphis craccivoras were seeded onto each leaf, and covered with plastic cups with holes. The adult aphids were removed after 24 hours. Before the experiment, the base number was investigated and the single leaf with more than 15 nymphs aphids was selected for the experiment. Dip leaf of broad bean with nymphs aphids into the solution of test compound 10s, take out and dry them in a cool environment, 3 parallel repeats. Place the glass jars on the shelf of observation room and covered with plastic cups with holes. 20-25° C. with 14 hL: 10 hD illumination. The number of Aphis craccivora death and alive was investigated on the 3rd day after treatment, and the mortality was calculated.

Where [6] appears, read: 3rd day after treatment, read-out: insecticidal activity (mortality of Chilo suppressalis).
The mark [7] stands for this setting: 72 h, 3 d, read-out: Mortality (%, 3 d) 1 ppm.
Setting [8] is: 72 h, 3 d, read-out: Mortality (%, 3 d) 2 ppm.
The mark [9] stands for this setting: 24 h, read-out: Mortality (%) against Spodoptera frugiperda, 1 d.
Where [10] appears, read: 48 h, read-out: Mortality (%) against Spodoptera frugiperda, 2 d.
The mark [11] stands for this setting: 72 h, read-out: Mortality (%) against Spodoptera frugiperda, 3 d.
Setting [12] is: 24 h, 1 d, read-out: Mortality (%) 1 d.
Setting [13] is: 48 h, 2 d, read-out: Mortality (%) 2 d.
[14] abbreviates: 72 h, 3 d, read-out: Mortality (%) 3 d.

Like-named read-outs stand apart in the source and are kept apart here.

On to `O=C(Nc1c(Br)cc(C(F)(C(F)(F)F)C(F)(F)F)cc1OC(F)F)c1cccc(N(CC2CC2)C(=O)c2ccccc2)c1F` [Compound 1, N-(2-bromo-4-(perfluoropropan-2-yl)-6-(difluoromethoxy)phenyl)-3-(N-(cyclopropylmethyl)benzamido)-2-fluorobenzamide], for which the mortality at 1 ppm was not below 90% in data set [1], not below 90% in data set [3] (setting [6]) and 96.7% in data set [3] (setting [7]). Further, in data set [2], the mortality at 0.04 ppm is not below 90%. The mortality at 0.5 ppm in data set [3] (72 h, 3 d) amounted to 76.7%. For the same compound, the mortality at 2 ppm in data set [3] (setting [8]) is 100%. In data set [4], the mortality at 0.4 ppm was not below 90%.
Consider `N#Cc1ccc(C(=O)N(CC2CC2)c2cccc(C(=O)Nc3c(Br)cc(C(F)(C(F)(F)F)C(F)(F)F)cc3OC(F)F)c2F)cc1` [Compound 14], for which, in data set [1], the “Mortality (%) against Spodoptera frugiperda, 1 d” value (shortened to “Mortality (%) … 1 d”) is recorded as 29.17%; the “Mortality (%) against Spodoptera frugiperda, 2 d” value (“Mortality (%) … 2 d” for short) was 79.17%; the “Mortality (%) against Spodoptera frugiperda, 3 d” value (“Mortality (%) … 3 d” below) was determined as 95.83%.
With `O=C(Nc1c(Br)cc(C(F)(C(F)(F)F)C(F)(F)F)cc1OC(F)F)c1cccc(N(CC2CC2)C(=O)c2ccc(F)cc2)c1F` [Compound 31, N-(2-bromo-6-(difluoromethoxy)-4-(perfluoropropan-2-yl)phenyl)-3-(N-(cyclopropylmethyl)-4-fluorobenzamido)-2-fluorobenzamide], the mortality at 40 ppm in data set [5] (Aphis craccivora, foliar, 40 ppm, 3rd day after treatment, read-out: insecticidal activity (mortality of Aphis craccivora)) is not below 90%. The mortality at 0.1 ppm in data set [1] (setting [9]), in data set [1] (setting [10]) and in data set [1] (setting [11]) was 100% each time. Moreover, the mortality at 1 ppm in data set [1] was not below 90%; in data set [3] (setting [6]), not below 90%; in data set [3] (setting [7]), 100%. Moreover, the mortality at 0.04 ppm in data set [2] was not below 90%. The mortality at 0.01 ppm in data set [2] (setting [12]) was 13.3%; in data set [2] (setting [13]) it was 63.3%; in data set [2] (setting [14]) it was 70%. In data set [3] (72 h, 3 d), this compound yielded a mortality at 0.5 ppm of 83.3%. Also, the mortality at 2 ppm in data set [3] (setting [8]) came out at 100%. The mortality at 0.4 ppm in data set [4] was not below 90%.
Consider `O=C(Nc1c(Br)cc(C(F)(C(F)(F)F)C(F)(F)F)cc1OC(F)F)c1cccc(N(CC2CC2)C(=O)c2ccc(Cl)cc2)c1F` [Compound 44], for which, in data set [1], the “Mortality (%) … 1 d” value is 37.50%; the “Mortality (%) … 2 d” value was 62.50%; the “Mortality (%) … 3 d” value is given as 91.67%.
On to `O=C(Nc1c(Br)cc(C(F)(C(F)(F)F)C(F)(F)F)cc1C(F)(F)F)c1cccc(N(CC2CC2)C(=O)c2ccncc2)c1F` [Compound 101], for which the “Mortality (%, 3 d) 1 ppm” value in data set [5] (1 ppm, 3 d) turned out to be 39.11%. Also, the “Mortality (%, 3 d) 10 ppm” value in data set [5] (10 ppm, 3 d) is reported as 83.26%. Also, in data set [5] (40 ppm, 3 d), the “Mortality (%, 3 d) 40 ppm” value is listed as 100.00%.
For the compound `O=C(Nc1c(Br)cc(C(F)(C(F)(F)F)C(F)(F)F)cc1C(F)(F)F)c1cccc(N(CC2CC2)C(=O)c2ccc(F)nc2)c1F` [Compound 106, N-(3-((2-bromo-4-(perfluoropropan-2-yl)-6-(trifluoromethyl)phenyl)carbamoyl)-2-fluorophenyl)-N-(cyclopropylmethyl)-6-fluoronicotinamide], the mortality at 0.1 ppm amounted to 41.7% in data set [1] (setting [9]), 62.5% in data set [1] (setting [10]) and 95.8% in data set [1] (setting [11]). For the same compound, the mortality at 1 ppm in data set [1] and in data set [3] (setting [6]) was not below 90% in each case. For the same compound, the mortality at 0.04 ppm in data set [2] was not below 90%. For the same compound, the mortality at 0.4 ppm in data set [4] was not below 90%.
Take `O=C(Nc1c(Br)cc(C(F)(C(F)(F)F)C(F)(F)F)cc1OC(F)F)c1cccc(N(CC2CC2)C(=O)c2ccnc(Cl)c2)c1F` [Compound 119]: in data set [1], the “Mortality (%) … 1 d” value stood at 54.17%; the “Mortality (%) … 2 d” value is listed as 79.17%; the “Mortality (%) … 3 d” value came to 91.67%.
With `O=C(Nc1c(Br)cc(C(F)(C(F)(F)F)C(F)(F)F)cc1OC(F)F)c1cccc(N(CC2CC2)C(=O)c2ccnc(F)c2)c1F` [Compound 120], in data set [1], the “Mortality (%) … 1 d” value was determined as 58.33%; the “Mortality (%) … 2 d” value came to 100%; the “Mortality (%) … 3 d” value is 100%.
Regarding `CC(C1CC1)N(C(=O)c1ccnc(Cl)c1)c1cccc(C(=O)Nc2c(Br)cc(C(F)(C(F)(F)F)C(F)(F)F)cc2C(F)(F)F)c1F` (stereo not shown) [Compound 124, N-(3-((2-bromo-4-(perfluoropropan-2-yl)-6-(trifluoromethyl)phenyl)carbamoyl)-2-fluorophenyl)-2-chloro-N-(1-cyclopropylethyl)isonicotinamide], in data set [3] (setting [6]), the mortality at 2 ppm was not below 90%.
Consider `CCN(C(=O)c1ccc(F)cc1)c1cccc(C(=O)Nc2c(Br)cc(C(F)(C(F)(F)F)C(F)(F)F)cc2OC(F)F)c1F` [KC1, reference compound], for which the values for the mortality at 0.01 ppm in data set [2] (setting [12]), in data set [2] (setting [13]) and in data set [2] (setting [14]) were 6.67%, 16.7% and 20%, respectively.
For the compound `CCN(C(=O)c1ccncc1)c1cccc(C(=O)Nc2c(Br)cc(C(F)(C(F)(F)F)C(F)(F)F)cc2OC(F)F)c1F` [KC2, reference compound], the mortality at 0.1 ppm in data set [1] (setting [9]) is 0%; in data set [1] (setting [10]) it was 8.33%; in data set [1] (setting [11]), 20.8%.
Regarding `O=C(Nc1c(Br)cc(C(F)(C(F)(F)F)C(F)(F)F)cc1OC(F)(F)F)c1cccc(N(CC2CC2)C(=O)c2ccccc2)c1F` [KC3, reference compound], the figures for the mortality at 0.1 ppm in data set [1] (setting [9]), in data set [1] (setting [10]) and in data set [1] (setting [11]) were 0%, 0% and 4.17%, respectively. This compound displayed a mortality at 0.5 ppm in data set [3] (72 h, 3 d) of 20%. In data set [3] (setting [7]), the mortality at 1 ppm came to 80%. For the same compound, the mortality at 2 ppm in data set [3] (setting [8]) was found to be 96.7%.
In the case of `O=C(Nc1c(Br)cc(C(F)(C(F)(F)F)C(F)(F)F)cc1C(F)(F)F)c1cccc(N(CC2CC2)C(=O)c2ccc(F)cc2)c1F` [KC4, reference compound], the mortality at 1 ppm in data set [5] (Aphis craccivora, foliar, 72 h, 1 ppm, 3 d) stood at 0%. Further, the mortality at 10 ppm in data set [5] (Aphis craccivora, foliar, 72 h, 10 ppm, 3 d) is 47.1%. In addition, the mortality at 40 ppm in data set [5] (Aphis craccivora, foliar, 72 h, 40 ppm, 3 d, read-out: Mortality (%, 3 d) 40 ppm) came to 65.2%. Further, in data set [4] (72 h, 0.04 ppm, 3 d), the mortality at 0.04 ppm is 8.83%. The compound also returned a mortality at 0.1 ppm in data set [4] (72 h, 0.1 ppm, 3 d) of 75%.

Broadly, the mortality is the share of the test organisms that died.
